pIC50: −log10 of the molar value.
Key:
[1] = biological target: T1, TYK2 JH2 (Homo sapiens, UniProt P29597); experiment: Binding to TYK2 JH2 by Scintillation Proximity Assay; details: His-tagged TYK2 JH2, 3H-labelled ligand 50 nM, SPA; geometric mean (SEM); read-out: IC50, inhibition of radioligand binding to TYK2 JH2
T1 construct: The pseudokinase domain (JH2) of human JAK (Janus family of cytoplasmic tyrosine kinases) family tyrosine kinase 2 (TYK2); made in house
Description: The pseudokinase domain (JH2) of human JAK (Janus family of cytoplasmic tyrosine kinases) family tyrosine kinase 2 (TYK2) with an N-terminal His^6 tag is expressed in baculovirus and purified by Ni-NTA affinity and size-exclusion chromatography. Yttrium (YSi) His-Tag scintillation proximity assay (SPA) beads (cat #PRNQ0096) are purchased from PerkinElmer Life Sciences. ^3H—N-[(1R)-1-[3-[8-Methyl-5-(methylamino)-8H-imidazo[4,5-d]thiazolo[5,4-b]pyridin-2-yl]phenyl]ethyl]-2-(methylsulfonyl) benzamide is synthesized by Quotient Bio with a specific activity of 63 Ci/mmol and a concentration 6.78 μM stored in ethanol (cat #TRQ41678) (See also e.g., J. S. Tokarski, et al., J. Biol. Chem., vol. 290(17), pages 11061-11074 (2015) and R. Moslin, et al., Med. Chem. Commun., vol. 8, pages 700-712 (2017)).
A 3 fold, 10 point serial dilution of Example 1 is prepared in 100% DMSO (200 nL) and transferred to a 96 well, white, clear bottom, non-binding surface assay plate (Costar 3604) using acoustic liquid handling. Control wells used to determine percent inhibition contained either DMSO (200 nL) or cold, unlabeled inhibitor (200 nL, 10 mM, 200 μM final concentration). […] After 15 minutes at room temperature, radioactivity is counted using the Trilux Microbeta.

[2] = system: IFNα signaling through pSTAT1 in TF1 cells; experiment: Inhibition of IFNα signaling through pSTAT1 in TF1 cells; assay type: cell-based; details: Homo sapiens, TF-1, 20 min, 10 ng/ml IFNα2 for 20 minutes, AlphaLISA, geometric mean (SEM), read-out: IC50, inhibition of p-Stat1 (Tyr701)
Procedure: TF1 cells (ATCC, CL-2003) are grown in RPMI 1640 (GIBCO) supplemented with 10% dialyzed FBS, 0.1 mg/ml Ampicillin and 2 ng/mL granulocyte macrophage colony stimulating factor. TF1 cells (100 K per well) are seeded in a 96-well poly-D-lysine coated plates in serum-free DMEM and incubated overnight at 37° C. under 5% CO2. Example 1 is serially diluted in DMSO, added to the cells, and incubated at 37° C. for 1 hr. Cells are then stimulated with 10 ng/ml IFNα2 at 37° C. for 20 minutes. After removing the medium, the cells are lysed in buffer containing Halt protease and phosphatase inhibitor cocktail (Thermo Scientific #78441) at room temperature for 30 minutes. The amount of p-Stat1 (Tyr701) is quantified as light emission at 615 nm using the AlphaLISA SureFire Ultra p-Stat1 (Tyr701) assay kit (Perkin Elmer #ALSU-PST1-A50K) following the vendor's recommended protocol. Percent inhibition at each inhibitor concentration is calculated and fit to the four parameter nonlinear logistic equation using Genedata Screener® to give an IC50 for the compound of Example 1 of 0.008 μM (±0.001 μM, n=5) and for the compound of Example 2 of 0.010 μM (±0.001 μM, n=4) expressed as GeoMetric means with the standard error of the mean (SEM).

[3] = system: IL-23 signaling (STAT3 phosphorylation) in Kit225 cells; experiment: IL23 pSTAT3 AlphaLISA assay; assay type: cell-based; details: 0.5 h, IL23 25 ng/ml for 30 minutes, geometric mean (SEM), read-out: relative IC50, IL23 pSTAT3
Procedure: IL2-dependent Kit225 cells expressing endogenous IL23 receptors are stably transduced with the Lenti STAT3 Reporter linked to firefly luciferase (SABiosciences CLS-6028L). These cells are used to monitor TYK2 activity by quantifying gene expression caused by STAT3 phosporylation following induction by IL23 in the presence of IL2 using AlphaLISA technology (TGR Biosciences ALSU-TST3-A50K). The cells are grown in RPMI 1640 (Gibco 22400) supplemented with 10% FBS (Invitrogen 10082), 1× Pen/Strep (Gibco 15140-122), 200 ng/ml Puromycin (Sigma P9620), and fresh 10 ng/ml recombinant human IL2 (R&D Systems 202-IL-50). For assay preparation, cells are dispensed into Biocoat black poly-d-lysine coated clear bottom 384-well plates (Becton Dickinson Bio-Coat 35-4640) in DMEM (Sigma D5796) at 300,000 cells/well and allowed to incubate overnight at 37° C. Compounds solubilized in DMSO are serially diluted 1:3 to produce a 10-point concentration response curve (final DMSO=0.1%). Cells are pre-incubated with Example 1 for 1 hour at 37° C., then stimulated with IL23 (25 ng/ml final) for 30 minutes. […] The AlphaLISA reaction is performed following the vendor's recommended protocol, and the luciferase levels are measured using an Envision plate reader (Perkin Elmer). […]

T1 sequence (P29597 589-875 limits assumed): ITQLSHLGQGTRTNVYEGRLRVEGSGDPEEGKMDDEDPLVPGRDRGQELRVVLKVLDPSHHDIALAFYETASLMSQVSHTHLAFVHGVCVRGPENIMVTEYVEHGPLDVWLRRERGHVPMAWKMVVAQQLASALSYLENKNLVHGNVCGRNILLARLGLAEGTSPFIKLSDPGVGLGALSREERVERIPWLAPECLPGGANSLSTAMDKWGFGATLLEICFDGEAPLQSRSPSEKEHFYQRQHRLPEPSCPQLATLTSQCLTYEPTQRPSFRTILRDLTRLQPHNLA

Compound	pIC50 [1]	pIC50 [2]	pIC50 [3]
CNc1cc(Nc2ccccc2OC)nc2c(C(=O)N[C@@H]3CCN(C)C3=O)cnn12 [Example 1, 5-(2-Methoxyanilino)-7-(methylamino)-N-[(3R)-1-methyl-2-oxo-pyrrolidin-3-yl]pyrazolo[1,5-a]pyrimidine-3-carboxamide]	7.35	8.10	8.05
CCOc1ccccc1Nc1cc(NC)n2ncc(C(=O)N[C@@H]3CCN(C)C3=O)c2n1 (single isomer, unassigned) [Example 2]	7.40	8.00	8.00
